Legend:
[1] = biological target: T1, calcitonin receptor (Homo sapiens, UniProt P30988); assay: calcitonin agonist test: cAMP generation in T-47D cells; type: cell-based; conditions: for cAMP: basal 1
T1 construct: host or cells: T-47D
T1 sequence (P30988 25-474): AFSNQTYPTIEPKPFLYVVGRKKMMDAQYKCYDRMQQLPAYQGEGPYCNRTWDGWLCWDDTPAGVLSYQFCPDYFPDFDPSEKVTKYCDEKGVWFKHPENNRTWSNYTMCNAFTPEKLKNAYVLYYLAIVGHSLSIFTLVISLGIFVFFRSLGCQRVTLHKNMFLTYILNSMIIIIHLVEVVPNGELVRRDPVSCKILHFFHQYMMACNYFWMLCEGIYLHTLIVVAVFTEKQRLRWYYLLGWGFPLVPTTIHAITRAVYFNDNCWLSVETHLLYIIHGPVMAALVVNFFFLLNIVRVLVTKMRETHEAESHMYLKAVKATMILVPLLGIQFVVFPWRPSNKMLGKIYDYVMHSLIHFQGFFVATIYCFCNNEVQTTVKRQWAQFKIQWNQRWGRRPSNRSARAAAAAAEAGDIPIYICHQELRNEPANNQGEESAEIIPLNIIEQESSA
Source text: The second in vitro standard pharmacological test procedure determines the ability of the compound to be evaluated to act as a calcitonin agonist, by measuring the levels of cAMP produced in response to the test compound. The following briefly describes the procedure used and the results obtained.
cAMP was generated in T-47D cells (a human mammary carcinoma cell line available from the American Type Culture Collection, Rockville, Md., USA) according to the following procedure. […] After the incubation was completed, the growth medium was aspirated from the cells in the plate.
Fifty ul of antiserum was added to all wells with the exception of the non-specific binding wells (NSB). Fifty ul of the SPA anti-rabbit reagent was added to all wells.
Intracellular cAMP levels in the T-47D cells following salmon calcitonin stimulation for 10 rain at 37° C. are as follow: […]

[2] = biological target: T2, calcitonin receptor (Rattus norvegicus, UniProt P32214); assay: binding to the calcitonin receptor (125I-salmon calcitonin displacement, rat renal plasma membrane); set-up: species or system rat (Sprague-Dawley)
T2 construct: Kidneys were removed and placed in ice cold saline; from tissue; host or cells: Sprague-Dawley rat kidney, renal plasma membrane
T2 sequence (P32214 25-479 isoform P32214-2 limits assumed): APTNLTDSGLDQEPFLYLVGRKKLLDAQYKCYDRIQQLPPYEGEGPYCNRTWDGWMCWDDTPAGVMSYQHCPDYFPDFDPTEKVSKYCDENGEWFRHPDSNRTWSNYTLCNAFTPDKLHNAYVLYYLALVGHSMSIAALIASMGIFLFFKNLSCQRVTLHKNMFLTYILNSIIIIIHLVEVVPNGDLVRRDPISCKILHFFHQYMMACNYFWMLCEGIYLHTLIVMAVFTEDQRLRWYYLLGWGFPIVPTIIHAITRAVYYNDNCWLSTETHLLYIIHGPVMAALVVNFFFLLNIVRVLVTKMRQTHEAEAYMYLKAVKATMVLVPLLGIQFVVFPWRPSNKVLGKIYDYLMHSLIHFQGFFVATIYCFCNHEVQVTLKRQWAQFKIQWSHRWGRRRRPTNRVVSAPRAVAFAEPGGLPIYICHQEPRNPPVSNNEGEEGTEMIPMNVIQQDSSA
Experimental: The first in vitro standard pharmacological test procedure measures the ability of the compound to be evaluated to bind to the calcitonin receptor. The following describes the procedure used and the results obtained.
Adult female or male Sprague-Dawley rats (250-350 gm), were euthanized by CO2 asphyxiation. Kidneys were removed and placed in ice cold saline; all subsequent procedures were carded out at 4° C. Kidneys were decapsulated and coarsely minced with scissors. […]
Samples were incubated for 1 hour at room temperature. […] The filters were counted for a period of 2 minutes per sample utilizing an LKB Betaplate Reader.

[3] = effect on serum calcium levels in young growing rats; type: in vivo, rat; set-up: Serum Calcium: unit not given here; conditions: for Serum Calcium: mean
Experimental: {5R*-[6R*, 7S*, 8R*, 9R*, 12S*, 16S*, 18S*, 19S*, (13E)]} 4, 7, 19-Trihydroxy-2, 6, 8, 12, 12, 14, 16, 18-heptamethyl-6, 7, 8, 9, 10, 11, 12, 15, 16, 17, 18, 19-dodecahydro-1, 19:5, 9-diepoxybenzocyclooctadecen-3(5H)-one was also evaluated in an in vivo standard pharmacological test procedure that measures the effect of the test compound on serum calcium levels. Agents that inhibit bone resorption, such as calcitonin, regulate circulating calcium levels by inhibiting osteoclast mediated osteolysis and thereby inhibit the release of calcium from bone. The decrease in serum calcium levels following drug treatment indicates bone sparing activity. Calcitonin acts on specific membrane receptors of the bone resorbing osteoclast cells eliciting second messenger events such as increased cAMP generation that leads to inhibition of the cell's motility and inhibition of its bone resorbing functional activity. If bone turnover activity is high, such as in the young growing rat, this rapid inhibition in bone resorption is reflected by a transient decrease in circulating calcium. […] Young adult male rats weighing 160-170 g were held for at least 72 hours after receipt to acclimatize to colony conditions and then were randomly assigned to groups of 5-7 rats/group for treatment. The rats were administered vehicle or test compound, and at intervals between 0.5 and 3 hours after dosing, 1.0 ml of blood was collected from each rat under ketamin/acepromazine anesthesia via tail artery or (terminal via) cardiac puncture. Serum was evaluated for total calcium using a NOVA 7+7 blood analyzer.
In this standard pharmacological test procedure, all animals were dosed at 0 hours. For animals treated with the compound of Formula I, animals were bled sequentially. For animals treated with salmon calcitonin and untreated normal animals, a different group was used at each time point.

[4] = test system: osteoclasts; assay: inhibition of bone resorption by osteoclasts (pits excavated per bone slice); type: cell-based; conditions: Osteoclast, neonatal rat osteoclasts on bovine cortical bone slices, 24 h
Experimental: Briefly, osteoclasts were isolated from neonatal rat long bones by mincing the bones in Medium 199 containing Hank's salts (3 ml per 10 bones from each of 5 animals). Osteoclasts were dislodged from the bone fragments by aspirating the bone fragments 50 times into and out of a transfer pipette. 100 μl of the resulting cell suspension from each animal was then plated onto each of 3 (per dose) 4.4 mm^2 slices of devitalized bovine femoral cortical bone that had been placed in the wells of a 96 well plate and pre-wetted with 100 μl of the medium. The osteoclasts were then allowed to adhere for 25 minutes at 37° C. The slices, with adherent osteoclasts, were then rinsed in 5 ml of medium to remove non-adherent cells. The slices were then transferred to Medium 199 containing Earle's salts with only 0.7 g/L NaHCO3 (to ensure that the medium equilibrates to a pH of 6.8-7.1 in a 5% CO2 atmosphere) and 10% heat-inactivated fetal bovine serum. […] The excavations (pits) made by the osteoclasts in the surface of the bone were visualized by staining with 1% toluidine blue for 3 minutes and bone resorption quantified microscopically by counting the number of pits excavated per slice.

For CC1=C2O[C@]3(O)C=C2C(=C(O)C1=O)[C@@H]1O[C@H](CC[C@H](C)/C=C(\C)C[C@@H](C)C[C@@H]3C)[C@H](C)[C@H](O)[C@H]1C (relative stereo) [Formula I, {5R*-[6R*, 7S*, 8R*, 9R*, 12S*, 16S*, 18S*, 19S*, (13E)]} 4,7, 19-Trihydroxy-2,6,8, 12, 12, 14, 16, 18-heptamethyl-6,7,8,9, 10, 11, 12, 15, 16, 17, 18, 19-dodecahydro-1, 19:5,9-diepoxybenzocyclooctadecen-3(5H)-one], the EC50 ([1]; 10 min at 37° C., 10 μM IBMX, read-out: EC50, cAMP production (converted)) was 0.616 µM, the “calcitonin agonist activity (in words)” value ([1]; cAMP) was “potent calcitonin agonist” and the “inhibition of the binding of calcitonin to the calcitonin receptor (in words)” value [2] was “competitively inhibited”. For the same compound, the IC50 ([2]; 1 hour at room temperature) was 20.5 µM, the “Serum Calcium” value ([3]; 10 mg/kg, i.p., 0.5 hours, normals 10.92) was 10.73 and the “Serum Calcium” value ([3]; 10 mg/kg, i.p., 1.5 hours, normals 10.88, p < 0.01) was 10.21. For the same compound, the “Serum Calcium” value ([3]; 10 mg/kg, i.p., 3.0 hours, normals 10.40, p < 0.01) was 9.99, the “Serum Calcium” value ([3]; 30 mg/kg, i.p., 0.5 hours, normals 10.92) was 10.60 and the “Serum Calcium” value ([3]; 30 mg/kg, i.p., 1.5 hours, normals 10.88, p < 0.05) was 10.43. The “Serum Calcium” value ([3]; 30 mg/kg, i.p., 3.0 hours, normals 10.40) was 10.18, the “Serum Calcium” value ([3]; 100 mg/kg, i.p., 0.5 hours, normals 10.92, p < 0.01) was 10.29 and the “Serum Calcium” value ([3]; 100 mg/kg, i.p., 1.5 hours, normals 10.88, p < 0.01) was 10.19. The “Serum Calcium” value ([3]; 100 mg/kg, i.p., 3.0 hours, normals 10.40, p < 0.05) was 10.06, the “reduction of serum calcium levels (in words)” value ([3]; young growing rats, summary statement) was “significantly reduced serum calcium levels” and the IC50 [4] was 0.8 µg/mL.

Compound Salmon Calcitonin has a cAMP ([1]; calcitonin 0.0001 nM, 10 min at 37° C.) of 2 pmol/mL, a cAMP ([1]; calcitonin 0.001 nM, 10 min at 37° C.) of 13 pmol/mL and a cAMP ([1]; calcitonin 0.01 nM, 10 min at 37° C.) of 105 pmol/mL. For the same compound, the cAMP ([1]; calcitonin 0.1 nM, 10 min at 37° C.) was > 640 pmol/mL, the “Serum Calcium” value ([3]; 5 IU/rat, s.c., 0.5 hours, normals 10.92, p < 0.01) was 8.17 and the “Serum Calcium” value ([3]; 5 IU/rat, s.c., 1.5 hours, normals 10.88, p < 0.01) was 7.45. The “Serum Calcium” value ([3]; 5 IU/rat, s.c., 3.0 hours, normals 10.40, p < 0.01) was 6.65.

Source: patent US5728727A, “Antiosteoporotic compound” (American Home Products Corporation, priority 1996, dated 1998)
